Data from article PMC8707700, “Ru(III) Complexes with Lonidamine-Modified Ligands” (International Journal of Molecular Sciences, 2021).
“And” between values parts separate entries of the source, which are not always exact repeats. Equal values may be shown once.

Assays:
[1] = Lipophilicity, shake-flask method water/n-octanol; type: physicochemical; conditions: UV-vis, mean ± SD
Procedure: The lipophilicity of complexes 15–20 was studied using a standard shake-flask method in a mixture of water/n-octanol. For the quantification of compounds in the water phase, UV-vis spectrophotometry was used. […] Among other complexes, as expected, 20 was the most lipophilic (Table 1).
N-octanol was saturated with water and with water saturated with n-octanol; mixture400 mL of n-octanol (water) and 100 mL of water (n-octanol) was stirred for 24 h; and then fractions were separated. The sample of the complex was dissolved in n-octanol and a series of solutions in octanol (300, 250, 3 × 200, 150, 100, and 50 μM) was prepared. Absorption spectra were recorded and the calibration curve for maximum absorption was plotted. From 200 μM solutions, the mixtures with water were prepared (1:1, 1:2, 2:1 v/v) and shaken for 15 min. The organic phase was separated by centrifugation. The concentration of the complex in n-octanol was determined from the calibration curve and lipophilicity (logP) was calculated as log P = log [(C0–Caq)/Caq].

[2] = system: Balb/c mice; assay: In vivo acute toxicity; conditions: for Drug-induced lethality, died/survived (n = 6): 21 days
Procedure: Finally, we tested the acute toxicity of complex 16 in Balb/c mice after a single bolus i.p. injection of the compound dissolved in saline. […] Animals were monitored for 21 days after injection. […] Mice in these cohorts had normal hair cover; no changes of nutritional behaviour were registered over the entire period of observation. In contrast, doses >80 mg/kg were lethal for individual animals. […] Deaths were registered over the next 1–2 days (Table 5). In each group, the survived animals remained without visible changes for up to 21 days after the injection of 16.
The Balb/c female mice (8–10 weeks old, weight 20–22 g) were bred and hosted at the animal facility of the Blokhin Cancer Center. Mice were kept at 21 ± 1 °C, 50–60% humidity; food and water were added ad libitum. All manipulations were performed in accordance to the European Convention for the Protection of Vertebrate Animals used for Experimental and other Scientific Purposes (ETS 123). Compound 16 was injected i.p.; 70–110 mg/kg single bolus administration in 200 µL of saline. Each cohort contained six mice. Animals were monitored for 21 days after injection. General behavioural activity, nutritional habits, and the integrity of hair cover were the criteria of acute toxicity.

Substance | Log P [1] | signs of acute toxicity ([2]; 110 mg/kg i.p., initial 1–2 h after injection) | Drug-induced lethality, died/survived (n = 6) ([2]; single dose 70 mg/kg i.p., 70 mg/kg) | Drug-induced lethality, died/survived (n = 6) ([2]; single dose 80 mg/kg i.p., 80 mg/kg) | Drug-induced lethality, died/survived (n = 6) ([2]; single dose 90 mg/kg i.p.) | Drug-induced lethality, died/survived (n = 6) ([2]; single dose 100 mg/kg i.p.) | Drug-induced lethality, died/survived (n = 6) ([2]; single dose 110 mg/kg i.p.)
Na[trans-Ru(DMSO)(C30H37Cl2N5O)Cl4] [Compound 20] | 1.3 ± 0.2 |  |  |  |  |  | 
Na[trans-Ru(DMSO)(C21H19Cl2N5O)Cl4] [Compound 16] |  | Tremor and dyspnoea | no deaths and 0/6 * | no deaths and 0/6 | 2/6 | 2/6 | 4/6
